Measured values from US20200392158A1, “INHIBITORS OF LEUCINE RICH REPEAT KINASE 2” (GLAXOSMITHKLINE INTELLECTUAL PROPERTY DEVELOPMENT LIMITED, priority 2017, published 2020).

Target: T1, LRRK2 kinase in SH-SY5Y cells over-expressing recombinant full length LRRK2 (Homo sapiens, UniProt Q5S007)
T1 construct: A BacMam virus expressing full length recombinant LRRK2 was purchased from Invitrogen; host or cells: SH-SY5Y human neuroblastoma cells transduced with BacMam LRRK2 virus
Test: Recombinant cellular LRRK2 AlphaScreen assay (LRRK2 Ser935 phosphorylation)
Assay type: cell-based
Conditions: 60 min
Excerpt: b. Recombinant Cellular LRRK2 AlphaScreen Assay
To determine the activity of compounds against LRRK2 kinase in cells, the observed LRRK2 kinase-dependent modulation of LRRK2 Ser 935 phosphorylation (Dzamko et al., 2010, Biochem. J. 430: 405-413) was utilized to develop a quantitative 384 well plate-based immunoassay of LRRK2 Ser935 phosphorylation in the human neuroblastoma cell line SH-SY5Y, engineered to over-express recombinant full length LRRK2 protein.
A BacMam virus expressing full length recombinant LRRK2 was purchased from Invitrogen and amplified by inoculation of SF-9 cells at MOI 0.3 for 4-5 days in Sf-900 III SFM medium supplemented with 3% fetal bovine serum. Infected cell cultures were then centrifuged at 2000 g for 20 minutes, viral supernatant titer determined by anti-gp64 plaque assay and stored at 4° C.
Affinity-purified anti-phospho LRRK2 Ser935 sheep polyclonal antibody (Dzamko et al., 2010, Biochem. J. 430: 405-413) was biotinylated by standard methods (PerkinElmer). Anti-LRRK2 rabbit polyclonal antibody was purchased from Novus Biologicals. AlphaScreen Protein A IgG Kit (including acceptor and donor beads) was purchased from Perkin Elmer.
SH-SY5Y cells were grown in DMEM/F12 medium with 10% dialysed fetal bovine serum and harvested by treatment with 0.5% trypsin-EDTA for 5 minutes at 37° C. followed by centrifugation at 1000 rpm for 4 minutes. The cell pellet was resuspended in Opti-MEM reduced serum media (Invitrogen) at 200,000 cells/ml and mixed with the BacMam LRRK2 virus at M01=50. 50 μl cell solutions were then dispensed to each well of a 384-well plate and incubated at 37° C., 5% CO2 for 24 hours.
Compounds were prepared at 10× final assay concentration as 11 point 1 in 4 serial I dilutions in Opti-MEM reduced serum medium (Invitrogen 31985070) containing 1% DMSO. On the day of assay, 5.5 μl of the compound solutions were transferred from the compound plate to the cell assay plate to achieve a top final assay concentration of 10 uM. DMSO (0.1% final assay concentration) was added to column 6 and 2-(benzyloxy)-5-methyl-4-(1-methyl-1H-pyrazol-4-yl)-N-(pyridin-3-yl)benzamide (2 μM final assay concentration) was added to column 18 to serve as 0% and 100% inhibition controls, respectively.
Cells were incubated at 37° C., 5% CO2 for 60 minutes. The medium was then removed and cells lysed by addition of 20 μl of cell lysis buffer (Cell Signaling Technology) and incubation at 4° C. for 20 minutes. 10 μl of antibody/acceptor bead mix [(1/1000 biotinylated-pS935 LRRK2 antibody, 1/1000 total-LRRK2 antibody, 1/100 Acceptor beads in AlphaScreen detection buffer (25 mM Hepes (pH 7.4), 0.5% Triton X-100, 1 mg/ml Dextran 500 and 0.1% BSA)] was then added to each well and plates incubated for 2 hours at ambient temperature in the dark. 10 μl of donor beads solution (1/33.3 donor beads in AlphaScreen detection buffer) was then added to each well. Following incubation for a further 2 hours at ambient temperature in the dark, plates were read on an EnVision™ plate reader at emission 520-620 nm with excitation 680 nm. Dose response curve data was based on a sigmoidal dose-response model.

T1 sequence (Q5S007 whole entry): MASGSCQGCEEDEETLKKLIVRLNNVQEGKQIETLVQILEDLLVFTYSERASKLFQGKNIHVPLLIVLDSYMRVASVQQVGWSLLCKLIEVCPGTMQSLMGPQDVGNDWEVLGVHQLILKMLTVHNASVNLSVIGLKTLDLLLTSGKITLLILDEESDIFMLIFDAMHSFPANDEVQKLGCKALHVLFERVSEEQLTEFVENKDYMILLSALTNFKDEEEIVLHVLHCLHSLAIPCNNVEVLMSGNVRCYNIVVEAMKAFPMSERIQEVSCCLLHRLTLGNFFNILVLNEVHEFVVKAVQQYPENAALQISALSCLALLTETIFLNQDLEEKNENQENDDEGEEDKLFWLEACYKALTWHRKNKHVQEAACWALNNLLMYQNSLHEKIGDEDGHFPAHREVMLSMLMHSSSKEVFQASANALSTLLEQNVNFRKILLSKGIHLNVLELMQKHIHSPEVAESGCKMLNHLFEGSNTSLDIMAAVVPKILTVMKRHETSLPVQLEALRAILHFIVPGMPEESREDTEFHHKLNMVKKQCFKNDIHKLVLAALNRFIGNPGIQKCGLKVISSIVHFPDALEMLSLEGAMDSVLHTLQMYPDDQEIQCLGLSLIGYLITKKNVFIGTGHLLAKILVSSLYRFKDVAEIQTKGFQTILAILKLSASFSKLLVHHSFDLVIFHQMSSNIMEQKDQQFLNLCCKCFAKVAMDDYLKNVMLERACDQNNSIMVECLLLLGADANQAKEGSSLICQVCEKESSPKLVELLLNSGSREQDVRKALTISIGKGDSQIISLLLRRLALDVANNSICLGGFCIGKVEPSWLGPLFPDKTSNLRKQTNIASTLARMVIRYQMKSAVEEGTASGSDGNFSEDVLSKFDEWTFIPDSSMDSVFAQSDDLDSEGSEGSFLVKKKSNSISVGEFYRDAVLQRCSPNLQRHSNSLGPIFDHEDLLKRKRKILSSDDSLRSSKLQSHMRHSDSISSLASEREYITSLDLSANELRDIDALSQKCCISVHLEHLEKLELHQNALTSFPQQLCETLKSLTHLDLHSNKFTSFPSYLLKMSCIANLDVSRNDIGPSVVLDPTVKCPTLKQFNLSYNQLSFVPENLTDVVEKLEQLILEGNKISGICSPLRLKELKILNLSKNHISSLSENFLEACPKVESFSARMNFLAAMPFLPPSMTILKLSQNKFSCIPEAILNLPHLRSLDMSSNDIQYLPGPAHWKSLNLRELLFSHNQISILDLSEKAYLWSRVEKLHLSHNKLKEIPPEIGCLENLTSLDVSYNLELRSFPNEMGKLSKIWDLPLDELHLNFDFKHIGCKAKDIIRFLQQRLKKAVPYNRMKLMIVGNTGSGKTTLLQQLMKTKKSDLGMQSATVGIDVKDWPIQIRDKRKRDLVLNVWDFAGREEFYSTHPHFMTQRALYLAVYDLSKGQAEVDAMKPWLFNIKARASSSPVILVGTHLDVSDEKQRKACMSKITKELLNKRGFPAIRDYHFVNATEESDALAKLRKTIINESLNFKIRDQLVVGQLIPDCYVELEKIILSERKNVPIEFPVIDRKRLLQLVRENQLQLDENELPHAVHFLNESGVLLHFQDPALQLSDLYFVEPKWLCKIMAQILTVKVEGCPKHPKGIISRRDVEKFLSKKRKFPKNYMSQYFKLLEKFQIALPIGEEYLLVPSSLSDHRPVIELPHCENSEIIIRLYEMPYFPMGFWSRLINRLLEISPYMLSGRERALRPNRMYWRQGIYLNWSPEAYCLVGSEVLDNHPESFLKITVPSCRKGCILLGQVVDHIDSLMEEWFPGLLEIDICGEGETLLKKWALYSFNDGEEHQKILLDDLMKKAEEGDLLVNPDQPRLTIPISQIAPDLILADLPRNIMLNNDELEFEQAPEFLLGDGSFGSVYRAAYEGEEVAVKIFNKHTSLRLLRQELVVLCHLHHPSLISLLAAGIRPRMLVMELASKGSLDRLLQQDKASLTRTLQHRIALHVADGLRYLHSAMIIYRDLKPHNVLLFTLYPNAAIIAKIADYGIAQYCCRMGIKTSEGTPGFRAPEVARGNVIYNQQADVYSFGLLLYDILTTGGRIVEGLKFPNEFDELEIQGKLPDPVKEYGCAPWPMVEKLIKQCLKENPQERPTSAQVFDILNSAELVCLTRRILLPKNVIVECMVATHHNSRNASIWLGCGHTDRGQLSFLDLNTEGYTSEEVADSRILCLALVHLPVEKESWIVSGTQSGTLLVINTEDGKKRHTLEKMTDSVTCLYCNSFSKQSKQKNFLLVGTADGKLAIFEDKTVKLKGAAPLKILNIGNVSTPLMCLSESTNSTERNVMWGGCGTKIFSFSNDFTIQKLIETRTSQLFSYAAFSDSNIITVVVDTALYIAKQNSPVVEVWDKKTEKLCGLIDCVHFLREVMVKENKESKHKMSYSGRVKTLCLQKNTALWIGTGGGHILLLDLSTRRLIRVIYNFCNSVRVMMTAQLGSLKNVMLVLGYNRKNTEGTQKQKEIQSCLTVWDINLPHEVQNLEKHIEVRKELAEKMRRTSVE

IC50, ≤ 100 nM:
Cc1c2c(nn1C1CCOCC1)OCCC(C)Nc1cc(ncc1Cl)N2 (single isomer, unassigned) [E345, 14-Chloro-4,11-dimethyl-5-(oxan-4-yl)-8-oxa-2,5,6,12,16-pentaazatricyclo[11.3.1.0^3,7]heptadeca-1(16),3,6,13 (17),14-pentaene]
Clc1cnc2nc1NCCCOc1nn(C3CCOC3)c(Cl)c1N2 (centres unmarked) [E144, 4,14-Dichloro-5-(oxolan-3-yl)-8-oxa-2,5,6,12,16,17-hexaaza tricyclo[11.3.1.0^3,7]heptadeca-1(16),3,6,13(17),14-pentaene]
COCC1CCOc2nn(C3CCOCC3)c(C)c2Nc2ncc(Br)c(n2)N1 (single isomer, unassigned) [E168, 14-Bromo-11-(methoxymethyl)-4-methyl-5-(oxan-4-yl)-8-oxa-2,5,6,12,16,17-hexaazatricyclo[11.3.1.0^3,7] heptadeca-1(16),3,6,13(17),14-pentaene]
Cc1c2c(nn1C1CCOCC1C)OCCCNc1nc(ncc1Cl)N2 (centres unmarked) [E139, 14-Chloro-4-methyl-5-(3-methyloxan-4-yl)-8-oxa-2,5,6,12,16,17-hexaazatricyclo[11.3.1.0^3,7]heptadeca-1(16),3,6,13(17),14-pentaene]
Cc1c2c(nn1C1CCOCC1C(F)(F)F)OCC[C@@H](C)Nc1nc(ncc1Cl)N2 (single isomer, unassigned) [E448]
Cc1c2c(nn1C1CCC(N3CCOCC3)CC1)OCCCNc1nc(ncc1Cl)N2 (single isomer, unassigned) [E380, 14-Chloro-4-methyl-5-[4-(morpholin-4-yl)cyclohexyl]-8-oxa-2,5,6,12,16,17-hexaazatricyclo [11.3.1.0^3,7]heptadeca-1(16),3,6,13(17),14-pentaene]
Cc1c2c(nn1C1CC(C)OC(C)C1)OCCC(C)Nc1nc(ncc1Cl)N2 (single isomer, unassigned) [E194, 14-Chloro-5-(2,6-dimethyloxan-4-yl)-4,11-dimethyl-8-oxa-2,5,6,12,16,17-hexaazatricyclo[11.3.1.0^3,7] heptadeca-1(16),3,6,13(17),14-pentaene]
Cc1c2c(nn1C1CCC(N3CCOCC3)CC1)OCCC(C)Nc1nc(ncc1Cl)N2 (single isomer, unassigned) [E150]
Cc1c2c(nn1C1CCC(OC(F)F)CC1)OCC[C@@H](C)Nc1nc(ncc1Cl)N2 (stereo partly drawn) [E374, (11R)-14-Chloro-5-[4-(difluoromethoxy)cyclohexyl]-4,11-di methyl-8-oxa-2,5,6,12,16,17-hexaazatricyclo[11.3.1.0^3,7]hepta deca-1(16),3,6,13(17),14-pentaene]
COC1CNc2nc(ncc2C(F)(F)F)Nc2c(nn(C3CCCOC3)c2C)OC1 (single isomer, unassigned) [E227, 10-Methoxy-4-methyl-5-(oxan-3-yl)-14-(trifluoromethyl)-8-oxa-2,5,6,12,16,17-hexaazatricyclo [11.3.1.0^3,7] heptadeca-1(17),3,6,13,15-pentaene]
Cc1c2c(nn1C1CC3(COC3)C1)OCCCNc1nc(ncc1Cl)N2 [E300, 14-Chloro-4-methyl-5-{2-oxaspiro[3.3]heptan-6-yl}-8-oxa-2,5,6,12,16,17-hexaazatricyclo[11.3.1.0^3,7]heptadeca-1(16),3,6,13(17),14-pentaene]
Cc1c2c(nn1C1CCC(C(F)(F)F)CC1)OCCC(C)Nc1nc(ncc1Cl)N2 (single isomer, unassigned) [E281, 4-Chloro-4,11-dimethyl-5-[4-(trifluoromethyl)cyclohexyl]-8-oxa-2,5,6,12,16,17-hexaazatricyclo[11.3.1.0^3,7] heptadeca-1(16),3,6,13(17),14-pentaene]
Cc1c2c(nn1C1CCC(N3CCC(F)C3)CC1)OCCC(C)Nc1nc(ncc1Cl)N2 (single isomer, unassigned) [E158, 14-Chloro-5-[4-(3-fluoropyrrolidin-1-yl)cyclohexyl]-4,11-dimethyl-8-oxa-2,5,6,12,16,17-hexaazatricyclo [11.3.1.0^3,7]heptadeca-1(16),3,6,13(17),14-pentaene]
Cc1c2c(nn1C1CCOCC1)OCC(C)CNc1nc(ncc1Cl)N2 (centres unmarked) [E135, 14-Chloro-4,10-dimethyl-5-(oxan-4-yl)-8-oxa-2,5,6,12,16,17-hexaazatricyclo[11.3.1.0^3,7]heptadeca-1(16),3,6,13(17),14-pentaene]
Cc1c2c(nn1C1CCOCC1)OCC[C@@H](C)N(C)c1nc(ncc1Cl)N2 [E359, (11R)-14-Chloro-4,11,12-trimethyl-5-(oxan-4-yl)-8-oxa-2,5,6,12,16,17-hexaazatricyclo[11.3.1.0^3,7]heptadeca-1(16),3,6,13(17),14-pentaene]
Cc1c2c(nn1C1CCCOC1)OCCCNc1nc(ncc1C(F)(F)F)N2 (centres unmarked) [E131, 4-Methyl-5-(oxan-3-yl)-14-(trifluoromethyl)-8-oxa-2,5,6,12,16, 17-hexaazatricyclo[11.3.1.0^3,7]heptadeca-1(16),3,6,13(17),14-pentaene]
COC1CCCC(n2nc3c(c2C)Nc2ncc(Cl)c(n2)NC(C)CCO3)C1 (single isomer, unassigned) [E170, 14-Chloro-5-(3-methoxycyclohexyl)-4,11-dimethyl-8-oxa-2,5,6,12,16,17-hexaazatricyclo[11.3.1.0^3,7] heptadeca-1(16),3,6,13(17),14-pentaene]
Cc1c2c(nn1C1CCN(C3CCOC3)CC1)OCC[C@@H](C)Nc1nc(ncc1Cl)N2 (single isomer, unassigned) [E383]
Cc1c2c(nn1C1CCC(C(F)(F)F)CC1)OCCCNc1nc(ncc1Cl)N2 (single isomer, unassigned) [E276, 14-Chloro-4-methyl-5-[4-(trifluoromethyl)cyclohexyl]-8-oxa-2,5,6,12,16,17-hexaazatricyclo[11.3.1.0^3,7] heptadeca-1(16),3,6,13(17),14-pentaene]
Cc1c2c(nn1C1CCOC1)OCCCNc1nc(ncc1Cl)N2 (centres unmarked) [E122, 14-Chloro-4-methyl-5-(oxolan-3-yl)-8-oxa-2,5,6,12,16,17-hexa azatricyclo[11.3.1.0^3,7]heptadeca-1(16),3,6,13(17),14-pentaene]
COC1CNc2nc(ncc2Cl)Nc2c(nn(C3CCOCC3)c2Cl)OC1 (centres unmarked) [E339, 4,14-Dichloro-10-methoxy-5-(oxan-4-yl)-8-oxa-2,5,6,12,16,17-hexaazatricyclo[11.3.1.0^3,7]heptadeca-1(16),3,6,13(17),14-pentaene]
Cc1c2c(nn1C1(C)CCOCC1)OCC[C@@H](C)Nc1nc(ncc1Cl)N2 [E437, (11R)-14-Chloro-4,11-dimethyl-5-(4-methyloxan-4-yl)-8-oxa-2,5,6,12,16,17-hexaazatricyclo[11.3.1.0^3,7]heptadeca-1(16),3,6,13(17),14-pentaene]
Cc1c2c(nn1C1CCC(O)CC1)OCCC(C)Nc1nc(ncc1Cl)N2 (single isomer, unassigned) [E94, 4-{14-chloro-4,11-dimethyl-8-oxa-2,5,6,12,16,17-hexaazatricyclo [11.3.1.0^3,7]heptadeca-1(16),3,6,13(17),14-pentaen-5-yl}cyclohexan-1-ol]
